The target in the assay is T1, dihydrofolate reductase (Homo sapiens, UniProt P00374).
T1 sequence (P00374 1-187): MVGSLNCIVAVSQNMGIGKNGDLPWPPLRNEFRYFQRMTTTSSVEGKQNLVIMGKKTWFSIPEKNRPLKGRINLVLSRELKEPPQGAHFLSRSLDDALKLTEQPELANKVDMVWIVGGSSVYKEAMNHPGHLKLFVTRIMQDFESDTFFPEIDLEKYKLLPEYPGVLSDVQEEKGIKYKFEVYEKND
The assay can be described thus: Dihydrofolate reductase enzyme inhibition assay. It counts as biochemical. The following applies: for inhibition at 500 µM: read-out: % inhibition (0.5 mM).

The term IC50 denotes the concentration at which inhibition is half-maximal. Read a low IC50 as greater potency. What is called inhibition is the share of the control response that was lost under treatment. For `Fc1ccccc1NC(=S)NN=Cc1ccc(N2CCCC2)cc1` [Compound 5q, N-(2-Fluorophenyl)-2-[4-(pyrrolidin-1-yl)benzylidene]hydrazinecarbothioamide], the IC50 was 35.3 ± 0.59 µM and the inhibition at 500 µM was 77.3%.
For the compound `O=[N+]([O-])c1cccc(NC(=S)NN=Cc2ccc(N3CCCC3)cc2)c1` [Compound 5o, N-(3-Nitrophenyl)-2-[4-(pyrrolidin-1-yl)benzylidene]hydrazinecarbothioamide], the concentration for half-maximal inhibition (IC50) was 45.3 ± 0.63 µM and the inhibition at 500 µM is 75.6%.
For the compound `COc1cccc(NC(=S)NN=Cc2ccc(N3CCCC3)cc2)c1` [Compound 5h, N-(3-Methoxyphenyl)-2-[4-(pyrrolidin-1-yl)benzylidene]hydrazinecarbothioamide], inhibition was half-maximal at 23.1 ± 0.35 µM (IC50) and the inhibition at 500 µM worked out at 86.7%.
Consider `Cc1cccc(C)c1NC(=S)NN=Cc1ccc(N2CCCC2)cc1` [Compound 5e, N-(2,6-Dimethylphenyl)-2-[4-(pyrrolidin-1-yl)benzylidene]hydrazinecarbothioamide], for which the 50% inhibitory concentration (IC50) came out at 15.3 ± 0.26 µM and the inhibition at 500 µM stood at 90.2%.
In the same order, the values of `S=C(NCc1ccc(Cl)cc1)NN=Cc1ccc(N2CCCC2)cc1` [Compound 5i, N-(4-Chlorobenzyl)-2-[4-(pyrrolidin-1-yl)benzylidene]hydrazinecarbothioamide] are 27.5 ± 0.5 µM and 83.9%.
With `COc1ccc(NC(=S)NN=Cc2ccc(N3CCCC3)cc2)cc1` [Compound 5d, N-(4-Methoxyphenyl)-2-[4-(pyrrolidin-1-yl)benzylidene]hydrazinecarbothioamide], the concentration for half-maximal inhibition (IC50) is 12.4 ± 0.48 µM and the inhibition at 500 µM is 91.1%.
Turning to `S=C(NN=Cc1ccc(N2CCCC2)cc1)Nc1ccccc1` [Compound 5f, N-Phenyl-2-[4-(pyrrolidin-1-yl)benzylidene]hydrazinecarbothioamide], the IC50 amounted to 21.2 ± 0.44 µM and the inhibition at 500 µM came to 86.2%.
Consider `Cc1ccc(NC(=S)NN=Cc2ccc(N3CCCC3)cc2)cc1` [Compound 5g, 2-[4-(Pyrrolidin-1-yl)benzylidene]-N-(p-tolyl)hydrazinecarbothioamide], for which the IC50 amounted to 14.4 ± 0.29 µM and the inhibition at 500 µM stood at 89.5%.
In the same order, the values of `Fc1ccc(NC(=S)NN=Cc2ccc(N3CCCC3)cc2)cc1` [Compound 5b, N-(4-Fluorophenyl)-2-[4-(pyrrolidin-1-yl)benzylidene]hydrazinecarbothioamide] are 33.1 ± 0.71 µM and 80.6%.
Take `S=C(NCCc1ccccc1)NN=Cc1ccc(N2CCCC2)cc1` [Compound 5l, N-Phenethyl-2-[4-(pyrrolidin-1-yl)benzylidene]hydrazinecarbothioamide]: the IC50 was 12.4 ± 0.25 µM and the inhibition at 500 µM was found to be 91.5%.
Take `S=C(NN=Cc1ccc(N2CCCC2)cc1)Nc1cccc(Br)c1` [Compound 5n, N-(3-Bromophenyl)-2-[4-(pyrrolidin-1-yl)benzylidene]hydrazinecarbothioamide]: inhibition was half-maximal at 22.1 ± 0.37 µM (IC50) and the inhibition at 500 µM came out at 88.2%.
Turning to `S=C(NN=Cc1ccc(N2CCCC2)cc1)Nc1cccc(Cl)c1Cl` [Compound 5c, N-(2,3-Dichlorophenyl)-2-[4-(pyrrolidin-1-yl)benzylidene]hydrazinecarbothioamide], it took 36.2 ± 0.69 µM to reach half-maximal inhibition (IC50) and the inhibition at 500 µM amounted to 81.3%.
As to `Cc1ccc(CNC(=S)NN=Cc2ccc(N3CCCC3)cc2)cc1` [Compound 5r, N-(4-Methylbenzyl)-2-[4-(pyrrolidin-1-yl)benzylidene]hydrazinecarbothioamide], the IC50 stood at 42.2 ± 0.63 µM and the inhibition at 500 µM worked out at 79.8%.
For `S=C(NN=Cc1ccc(N2CCCC2)cc1)Nc1ccc(Br)cc1` [Compound 5m, N-(4-Bromophenyl)-2-[4-(pyrrolidin-1-yl)benzylidene]hydrazinecarbothioamide] the same measures were 16.3 ± 0.26 µM and 90.8%.
As to `S=C(NCCN1CCOCC1)NN=Cc1ccc(N2CCCC2)cc1` [Compound 5k, N-(2-Morpholinoethyl)-2-[4-(pyrrolidin-1-yl)benzylidene]hydrazinecarbothioamide], the 50% inhibitory concentration (IC50) was 40.6 ± 0.59 µM and the inhibition at 500 µM turned out to be 76.9%.
As for `O=[N+]([O-])c1ccc(NC(=S)NN=Cc2ccc(N3CCCC3)cc2)cc1` [Compound 5j, N-(4-Nitrophenyl)-2-[4-(pyrrolidin-1-yl)benzylidene]hydrazinecarbothioamide], the IC50 is 54.1 ± 0.72 µM and the inhibition at 500 µM is 74.1%.
Take `S=C(NN=Cc1ccc(N2CCCC2)cc1)NC1CCCCC1` [Compound 5a, N-Cyclohexyl-2-[4-(pyrrolidin-1-yl)benzylidene]hydrazinecarbothioamide]: the midpoint of inhibition, the IC50, lay at 29.1 ± 0.38 µM and the inhibition at 500 µM amounted to 83.6%.
As to `S=C(NCc1ccccc1)NN=Cc1ccc(N2CCCC2)cc1` [Compound 5p, N-Benzyl-2-[4-(pyrrolidin-1-yl)benzylidene]hydrazinecarbothioamide], half-maximal inhibition (IC50) was put at 48.2 ± 0.6 µM and the inhibition at 500 µM turned out to be 74.6%.

(Values after article PMC11460214 (RSC Advances, 2024).)
